Assay [1] has as its target A II receptor. Put plainly: receptor binding test: displacement of 125I-Sar1-Ile8-AT II or [3H] AT II in the rat adrenal cortex. The text has this:
(§1) The compounds described in the present invention act as antagonists at the A II receptor level.
(§2) For the characterization and the evaluation of the effectiveness of the compounds of the invention, in vitro tests (such as the inhibition of the A II-induced contraction in the rabbit aorta and the displacement of ^125 I-Sar^1 -Ile^8 -AT II or [^3 H] AT II in the rat adrenal cortex) and an in vivo test (the inhibition of the A II-induced pressory response in the ganglio-blocked normotensive rat) were selected.
Background: Displacement assays read how much labelled ligand stays bound in the presence of the test substance.

The target in assay [2] is T1, A II receptor (Oryctolagus cuniculus, UniProt P34976).
T1 construct: A II-induced contraction in the rabbit aorta; from tissue; host or cells: rabbit aorta
T1 sequence (P34976 1-359): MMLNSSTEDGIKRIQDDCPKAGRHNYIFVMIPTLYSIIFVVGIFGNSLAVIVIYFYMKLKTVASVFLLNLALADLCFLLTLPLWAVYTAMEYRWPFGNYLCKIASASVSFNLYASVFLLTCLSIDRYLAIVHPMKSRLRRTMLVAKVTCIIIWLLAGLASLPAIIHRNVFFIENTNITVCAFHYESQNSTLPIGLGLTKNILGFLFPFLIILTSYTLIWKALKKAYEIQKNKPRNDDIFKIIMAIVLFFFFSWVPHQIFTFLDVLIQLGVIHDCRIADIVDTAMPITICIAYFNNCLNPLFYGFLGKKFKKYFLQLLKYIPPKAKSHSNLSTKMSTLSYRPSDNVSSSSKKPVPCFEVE
Put plainly: inhibition of the A II-induced contraction in the rabbit aorta. Type of assay: cell-based. As to conditions: in vitro, read-out: pA2 (converted).
Source text: as §1, §2

One may read the Ki as a measure of affinity in units of concentration, obtained from inhibition or displacement.

On A II receptor [1], `CCCCc1nc(Cl)c(COCc2ccccc2C(=O)O)n1Cc1ccc(-c2ccccc2-c2nnn[nH]2)cc1` [ex. 18, 2-butyl-5-[(2-carboxyphenyl)methoxymethyl]-4-chloro-1-[[2'-(1H-tetrazol-5-yl)-1,1'-biphenyl-4-yl]methyl]-1H-imidazole] had a Ki of 4.4 nM. The Kb at A II receptor [2] is 0.2 nM.

For the molecule `CCCCc1nc(Cl)c(COCc2occc2C(=O)O)n1Cc1ccc(-c2ccccc2-c2nnn[nH]2)cc1` [2-butyl-5-[(3-carboxyfuran-2-yl)methoxymethyl]-4-chloro-1-[[2'-(1H-tetrazol-5-yl)-1,1'-biphenyl-4-yl]methyl]-1H-imidazole], the Ki on A II receptor [1] is 3.2 nM. Also, the Kb on A II receptor [2] is 1.26 nM.

The values are drawn from patent publication US5538987A, “Imidazole ethers having a II antagonist activity” (Istituto Luso Farmaco D'Italia S.p.A., priority 1992, dated 1996).
